This note sets out measurements from patent publication US20240246942A1, “KINASE INHIBITORS FOR THE TREATMENT OF NEURODEGENERATIVE DISEASES” (priority 2020, published 2024).

Common to all, as to test: biochemical
The target in test [1] is T1, panel of 374 wild-type kinases (Homo sapiens, UniProt P30530).
T1 construct: purchased Reaction Biology Corporation
T1 sequence (P30530 26-894): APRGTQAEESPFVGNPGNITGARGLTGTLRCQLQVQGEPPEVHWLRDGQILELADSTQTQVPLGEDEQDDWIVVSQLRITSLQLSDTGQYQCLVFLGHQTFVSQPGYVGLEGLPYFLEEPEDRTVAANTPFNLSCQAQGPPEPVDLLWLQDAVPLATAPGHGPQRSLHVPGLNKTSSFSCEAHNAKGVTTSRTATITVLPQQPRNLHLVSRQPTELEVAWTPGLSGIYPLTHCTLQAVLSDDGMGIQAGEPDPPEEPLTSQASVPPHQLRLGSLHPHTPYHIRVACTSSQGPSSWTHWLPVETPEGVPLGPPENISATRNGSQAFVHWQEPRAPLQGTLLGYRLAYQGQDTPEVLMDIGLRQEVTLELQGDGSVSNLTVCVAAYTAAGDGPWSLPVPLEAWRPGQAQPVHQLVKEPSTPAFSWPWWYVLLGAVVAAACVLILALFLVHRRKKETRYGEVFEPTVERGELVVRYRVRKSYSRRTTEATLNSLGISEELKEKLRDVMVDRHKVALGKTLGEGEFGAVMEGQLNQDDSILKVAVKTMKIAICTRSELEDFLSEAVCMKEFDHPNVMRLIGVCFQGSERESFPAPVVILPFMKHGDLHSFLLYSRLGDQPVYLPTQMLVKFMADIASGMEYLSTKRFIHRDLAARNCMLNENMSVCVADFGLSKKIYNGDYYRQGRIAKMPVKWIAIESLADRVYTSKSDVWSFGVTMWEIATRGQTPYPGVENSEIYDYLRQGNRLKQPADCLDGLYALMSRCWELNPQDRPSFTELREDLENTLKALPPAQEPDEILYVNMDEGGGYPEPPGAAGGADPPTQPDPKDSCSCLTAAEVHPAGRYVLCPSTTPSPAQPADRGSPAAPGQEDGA
To be noted: read-out: % Enzyme Activity (relative to DMSO controls), AXL.

The target of test [2] is T2, panel of 374 wild-type kinases (Homo sapiens, UniProt P45985).
T2 construct: purchased Reaction Biology Corporation
T2 sequence (P45985 1-399): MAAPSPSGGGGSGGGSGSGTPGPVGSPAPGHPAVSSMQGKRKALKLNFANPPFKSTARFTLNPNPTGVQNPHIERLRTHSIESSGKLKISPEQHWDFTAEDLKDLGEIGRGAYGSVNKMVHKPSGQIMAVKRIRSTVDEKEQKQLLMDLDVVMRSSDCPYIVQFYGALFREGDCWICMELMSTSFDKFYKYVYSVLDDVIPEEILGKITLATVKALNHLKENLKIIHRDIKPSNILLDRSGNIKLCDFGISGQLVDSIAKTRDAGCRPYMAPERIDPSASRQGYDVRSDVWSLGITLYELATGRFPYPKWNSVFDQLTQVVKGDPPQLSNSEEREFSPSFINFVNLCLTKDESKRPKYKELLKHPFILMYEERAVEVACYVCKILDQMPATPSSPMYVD
To be noted: read-out: % Enzyme Activity (relative to DMSO controls), MKK4.

In test [3] the target is T3, panel of 374 wild-type kinases (Homo sapiens, UniProt Q12851).
T3 construct: purchased Reaction Biology Corporation
T3 sequence (Q12851 1-820): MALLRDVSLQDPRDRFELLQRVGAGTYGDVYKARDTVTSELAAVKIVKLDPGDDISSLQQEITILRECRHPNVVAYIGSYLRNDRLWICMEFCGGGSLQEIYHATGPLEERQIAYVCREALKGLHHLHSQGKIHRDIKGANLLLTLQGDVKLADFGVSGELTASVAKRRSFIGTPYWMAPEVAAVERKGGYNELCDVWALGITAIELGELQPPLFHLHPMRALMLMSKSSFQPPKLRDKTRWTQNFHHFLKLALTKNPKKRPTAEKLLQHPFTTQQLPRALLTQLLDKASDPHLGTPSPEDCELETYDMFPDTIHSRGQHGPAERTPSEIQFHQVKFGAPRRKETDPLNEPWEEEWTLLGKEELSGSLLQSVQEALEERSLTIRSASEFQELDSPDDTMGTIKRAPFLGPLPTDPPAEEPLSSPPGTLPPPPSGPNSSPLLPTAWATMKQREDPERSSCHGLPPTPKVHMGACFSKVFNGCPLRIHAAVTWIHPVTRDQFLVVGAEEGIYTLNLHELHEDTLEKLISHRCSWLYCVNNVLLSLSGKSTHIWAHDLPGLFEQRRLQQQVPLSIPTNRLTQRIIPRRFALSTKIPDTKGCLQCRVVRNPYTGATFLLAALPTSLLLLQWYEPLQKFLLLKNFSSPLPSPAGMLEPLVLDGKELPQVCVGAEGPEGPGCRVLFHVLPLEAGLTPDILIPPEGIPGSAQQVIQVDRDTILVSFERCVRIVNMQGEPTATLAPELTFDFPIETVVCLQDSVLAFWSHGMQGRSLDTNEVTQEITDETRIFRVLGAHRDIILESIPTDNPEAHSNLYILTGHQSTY
To be noted: read-out: % Enzyme Activity (relative to DMSO controls), GCK/MAP4K2.

The target of test [4] is T4, panel of 374 wild-type kinases (Homo sapiens, UniProt Q13177).
T4 construct: purchased Reaction Biology Corporation
T4 sequence (Q13177 whole entry): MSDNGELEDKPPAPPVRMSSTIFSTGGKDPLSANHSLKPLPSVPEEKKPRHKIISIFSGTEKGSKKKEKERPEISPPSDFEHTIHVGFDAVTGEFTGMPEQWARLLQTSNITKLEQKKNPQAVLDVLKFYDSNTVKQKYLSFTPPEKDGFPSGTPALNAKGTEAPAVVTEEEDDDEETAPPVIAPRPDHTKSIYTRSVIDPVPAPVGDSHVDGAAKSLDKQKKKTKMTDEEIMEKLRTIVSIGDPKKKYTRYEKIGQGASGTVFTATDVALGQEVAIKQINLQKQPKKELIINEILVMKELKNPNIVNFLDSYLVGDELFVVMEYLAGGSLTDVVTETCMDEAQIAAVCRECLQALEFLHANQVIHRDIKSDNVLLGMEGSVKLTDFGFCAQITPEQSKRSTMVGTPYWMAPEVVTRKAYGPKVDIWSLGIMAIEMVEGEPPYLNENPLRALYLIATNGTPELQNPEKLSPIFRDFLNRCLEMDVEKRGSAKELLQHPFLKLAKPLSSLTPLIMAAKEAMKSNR
To be noted: read-out: % Enzyme Activity (relative to DMSO controls), kinase PAK2.

Test [5] deals with T5, panel of 374 wild-type kinases (Homo sapiens, UniProt Q16539).
T5 construct: purchased Reaction Biology Corporation
T5 sequence (Q16539 whole entry): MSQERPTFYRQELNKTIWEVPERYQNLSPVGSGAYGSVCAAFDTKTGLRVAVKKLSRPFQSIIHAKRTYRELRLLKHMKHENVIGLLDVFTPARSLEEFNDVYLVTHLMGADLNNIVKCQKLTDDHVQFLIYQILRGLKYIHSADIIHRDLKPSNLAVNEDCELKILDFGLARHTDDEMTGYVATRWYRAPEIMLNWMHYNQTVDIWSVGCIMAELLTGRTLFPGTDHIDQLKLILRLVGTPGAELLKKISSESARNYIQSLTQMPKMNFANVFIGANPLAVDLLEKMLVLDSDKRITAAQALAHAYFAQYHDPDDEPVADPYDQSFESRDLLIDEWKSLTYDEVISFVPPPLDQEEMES
To be noted: P38a/MAPK14, read-out: % Enzyme Activity (relative to DMSO controls).

For test [6], the target named is T6, panel of 374 wild-type kinases (Homo sapiens, UniProt Q9BXA6).
T6 construct: purchased Reaction Biology Corporation
T6 sequence (Q9BXA6 whole entry): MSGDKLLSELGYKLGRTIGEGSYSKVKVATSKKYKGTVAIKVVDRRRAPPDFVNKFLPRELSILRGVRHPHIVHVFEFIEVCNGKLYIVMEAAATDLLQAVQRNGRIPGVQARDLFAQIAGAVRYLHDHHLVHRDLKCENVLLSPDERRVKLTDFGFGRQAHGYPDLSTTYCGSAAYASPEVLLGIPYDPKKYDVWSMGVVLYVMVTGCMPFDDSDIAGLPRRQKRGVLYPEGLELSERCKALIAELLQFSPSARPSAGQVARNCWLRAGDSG
To be noted: read-out: % Enzyme Activity (relative to DMSO controls), kinase SSTK/TSSK6.

In test [7] the target is T7, panel of 374 wild-type kinases (Homo sapiens, UniProt Q9H2G2).
T7 construct: purchased Reaction Biology Corporation
T7 sequence (Q9H2G2 whole entry): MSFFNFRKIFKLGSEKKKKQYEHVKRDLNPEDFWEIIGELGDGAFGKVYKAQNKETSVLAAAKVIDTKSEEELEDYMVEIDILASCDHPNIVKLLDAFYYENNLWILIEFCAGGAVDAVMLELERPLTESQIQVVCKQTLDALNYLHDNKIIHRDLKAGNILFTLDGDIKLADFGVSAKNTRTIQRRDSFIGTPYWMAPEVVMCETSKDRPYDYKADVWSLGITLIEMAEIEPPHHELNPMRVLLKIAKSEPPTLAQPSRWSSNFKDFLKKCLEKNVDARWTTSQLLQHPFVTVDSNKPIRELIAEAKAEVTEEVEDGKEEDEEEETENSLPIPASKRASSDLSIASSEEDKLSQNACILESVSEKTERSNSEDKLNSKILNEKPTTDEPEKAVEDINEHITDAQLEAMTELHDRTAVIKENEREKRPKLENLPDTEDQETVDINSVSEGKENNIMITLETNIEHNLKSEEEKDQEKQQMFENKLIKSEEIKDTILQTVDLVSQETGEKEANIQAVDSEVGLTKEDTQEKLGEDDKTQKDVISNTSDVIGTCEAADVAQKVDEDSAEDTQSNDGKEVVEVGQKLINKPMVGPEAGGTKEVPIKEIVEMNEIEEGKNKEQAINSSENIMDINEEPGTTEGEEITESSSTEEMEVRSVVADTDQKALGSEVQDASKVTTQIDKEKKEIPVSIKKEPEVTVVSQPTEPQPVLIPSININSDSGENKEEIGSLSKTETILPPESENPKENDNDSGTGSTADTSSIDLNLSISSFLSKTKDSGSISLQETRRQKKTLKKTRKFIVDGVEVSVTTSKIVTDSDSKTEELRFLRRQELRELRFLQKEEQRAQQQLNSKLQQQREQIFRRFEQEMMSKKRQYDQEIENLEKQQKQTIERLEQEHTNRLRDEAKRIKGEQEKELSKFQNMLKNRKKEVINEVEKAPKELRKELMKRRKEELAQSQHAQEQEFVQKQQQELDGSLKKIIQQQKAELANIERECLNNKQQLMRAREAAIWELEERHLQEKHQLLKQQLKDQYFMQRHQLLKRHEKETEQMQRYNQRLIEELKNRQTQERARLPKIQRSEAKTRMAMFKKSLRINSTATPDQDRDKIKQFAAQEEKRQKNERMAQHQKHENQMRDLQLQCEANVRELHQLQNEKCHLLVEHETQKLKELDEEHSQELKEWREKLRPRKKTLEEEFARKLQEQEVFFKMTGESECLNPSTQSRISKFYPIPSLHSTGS
To be noted: read-out: % Enzyme Activity (relative to DMSO controls), kinase SLK/STK2.

Structures are written as SMILES.

`O=C(Nc1cnn(-c2csc(C(=O)NC3COC3)c2)c1)Nc1ccccc1Cl` [Compound 17, 4-(4-(3-(2-chlorophenyl)ureido)-1H-pyrazol-1-yl)-N-(oxetan-3-yl)thiophene-2-carboxamide]: the remaining activity at 5 µM in test [1] was 96.7%; in test [2] it was 113%; in test [3] it was 105%; in test [4], 90.1%; in test [5], 142%; in test [6] it was 103%. Moreover, in test [7], the remaining activity at 5 µM came to 89.7%.

As to `O=C(Nc1cnn(-c2csc(C(=O)NC3COC3)c2)c1)Nc1c(F)cccc1Cl` [Compound 25, 4-(4-(3-(2-chloro-6-fluorophenyl)ureido)-1H-pyrazol-1-yl)-N-(oxetan-3-yl)thiophene-2-carboxamide], the remaining activity at 5 µM in test [1] was 73%; in test [2], 133%; in test [3], 95.3%; in test [4] it was 95.3%; in test [5], 105%; in test [6], 103%. In addition, in test [7], the remaining activity at 5 µM is 95%.

For `Cc1sc(C(=O)NC2COC2)cc1-n1cc(NC(=O)Nc2c(F)cccc2Cl)cn1` [Compound 27, 4-(4-(3-(2-chloro-6-fluorophenyl)ureido)-1H-pyrazol-1-yl)-5-methyl-N-(oxetan-3-yl)thiophene-2-carboxamide], the remaining activity at 10 µM in test [1] (10 uM) was 86.6%; in test [2] (10 uM) it was 93%; in test [3] (10 uM), 90.2%; in test [4] (10 uM) it was 106%; in test [5] (10 uM) it was 93.2%; in test [6] (10 uM), 94%. Further, in test [7] (10 uM), the remaining activity at 10 µM came out at 99.7%.
